Laboratory results reported in PubChem BioAssay (NCI).
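All cell lines were grown in 96-well plates and treated with compound for 48 hours. GI50 = concentration required for 50% inhibition of growth. TGI: concentration producing complete growth inhibition.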

Tests used:
Assay in all cases: DTP human tumour cell line panel, 48 h
A549 NSCLC = system: A549 NSCLC
MCF7 breast = system: MCF7 breast
SNB-19 CNS = system: SNB-19 CNS
SF-295 CNS = system: SF-295 CNS
RPMI-8226 leukemia = system: RPMI-8226 leukemia
K-562 leukemia = system: K-562 leukemia
KM12 colon = system: KM12 colon
OVCAR-5 ovarian = system: OVCAR-5 ovarian
IGROV1 ovarian = system: IGROV1 ovarian
SNB-75 CNS = system: SNB-75 CNS

| SMILES | GI50 (A549 NSCLC) | TGI (A549 NSCLC) | GI50 (MCF7 breast) | TGI (MCF7 breast) | GI50 (SNB-19 CNS) | TGI (SNB-19 CNS) | GI50 (SF-295 CNS) | TGI (SF-295 CNS) | GI50 (RPMI-8226 leukemia) | TGI (RPMI-8226 leukemia) | GI50 (K-562 leukemia) | TGI (K-562 leukemia) | GI50 (KM12 colon) | TGI (KM12 colon) | GI50 (OVCAR-5 ovarian) | TGI (OVCAR-5 ovarian) | GI50 (IGROV1 ovarian) | TGI (IGROV1 ovarian) | GI50 (SNB-75 CNS) | TGI (SNB-75 CNS) |
| --- | --- | --- | --- | --- | --- | --- | --- | --- | --- | --- | --- | --- | --- | --- | --- | --- | --- | --- | --- | --- |
| Cc1ccc2c(c1)C(=O)c1c-2n(CCCN)c(=O)c2cc([N+](=O)[O-])ccc12 | 200 nM | 887 nM | 113 nM | 836 nM | 178 nM | 706 nM | 120 nM | 663 nM | 19.9 nM | 226 nM | 110 nM | 721 nM | 433 nM | 1230 nM | 873 nM | 1580 nM | 176 nM | 985 nM | 385 nM | 1070 nM |
| CC(=O)Oc1ccc(OC(C)=O)c2ccccc12 | 34900 nM | > 100000 nM | 7980 nM | 27600 nM | 30500 nM | > 100000 nM | 20900 nM | > 100000 nM | 3850 nM | 10200 nM | 3390 nM | 22000 nM | 10900 nM | 23400 nM | 17500 nM | 31700 nM | 3200 nM | 11500 nM | 14000 nM | 27700 nM |
| COc1cc(-c2cc(-c3ccc(N(C)C)cc3)nc(N3CCOCC3)c2C#N)cc(OC)c1OC | 1250 nM | > 100000 nM | 1240 nM | > 55200 nM | – | – | 381 nM | 1110 nM | 67.7 nM | 5080 nM | 961 nM | > 24600 nM | 1340 nM | > 100000 nM | 248 nM | > 100000 nM | 727 nM | 70000 nM | 13300 nM | > 76900 nM |
